How the values were obtained:
[1] = molecular target: Carbonic anhydrase 4 (Homo sapiens, UniProt P22748); assay: Inhibition constant of anion against human carbonic anhydrase isozyme hCA IV
[2] = molecular target: Carbonic anhydrase V (Homo sapiens, UniProt Q9Y2D0+P35218); assay: Inhibition constant of anion against human carbonic anhydrase isozyme hCA V; format: protein assay
[3] = molecular target: Carbonic anhydrase 9 (Homo sapiens, UniProt Q16790); assay: Inhibition constant of anion against human carbonic anhydrase isozyme hCA IX
[4] = molecular target: T1, Carbonic anhydrase 1 (Homo sapiens, UniProt P00915); assay: Inhibition constant of anion against human carbonic anhydrase isozyme hCA I; A = activator
[5] = molecular target: Carbonic anhydrase 2 (Homo sapiens, UniProt P00918); assay: Inhibition constant of anion against human carbonic anhydrase isozyme hCA II
[6] = molecular target: T1, Carbonic anhydrase 1; assay: Inhibition constant of anion against human carbonic anhydrase isozyme hCA I

Carbonic anhydrase 4, sequence (P22748 whole entry): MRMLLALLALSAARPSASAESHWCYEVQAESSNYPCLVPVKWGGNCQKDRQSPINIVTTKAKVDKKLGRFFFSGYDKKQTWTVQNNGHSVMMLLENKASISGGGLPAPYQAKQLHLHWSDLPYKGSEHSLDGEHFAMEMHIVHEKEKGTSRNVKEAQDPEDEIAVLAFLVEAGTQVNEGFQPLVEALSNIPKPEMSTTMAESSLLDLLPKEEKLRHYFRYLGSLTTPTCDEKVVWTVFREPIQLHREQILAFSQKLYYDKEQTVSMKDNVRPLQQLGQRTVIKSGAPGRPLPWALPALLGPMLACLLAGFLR
T1 sequence (P00915 whole entry): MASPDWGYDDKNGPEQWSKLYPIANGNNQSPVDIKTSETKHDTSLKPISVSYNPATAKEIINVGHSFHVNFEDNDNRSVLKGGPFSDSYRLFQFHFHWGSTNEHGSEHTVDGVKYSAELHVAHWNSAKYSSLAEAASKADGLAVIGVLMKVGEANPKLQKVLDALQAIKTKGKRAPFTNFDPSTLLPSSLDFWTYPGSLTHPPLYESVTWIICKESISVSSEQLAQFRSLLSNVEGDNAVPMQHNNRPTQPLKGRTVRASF

For `O=C([O-])O.[Na+]` [SODIUM BICARBONATE], which Ki [1] is on record?
Its Ki is 6.6 mM.

And the Ki [2]?
Its Ki is 82 mM.

And the Ki [3]?
Its Ki is 13 mM.

How did the Ki [4] turn out when `O=P([O-])(O)O.[Na+]` [SODIUM PHOSPHATE, MONOBASIC] was run?
The Ki was “Activator”.

What about the Ki [2] of the same compound?
Its Ki is 3.3 mM.

With `O=C([O-])[O-].[Na+].[Na+]` [SODIUM CARBONATE] as the compound, how does the Ki [1] read?
Its Ki is 5.7 mM.

What about the Ki [2] of the same compound?
Its Ki is 95 mM.

Which results are given for `O=P([O-])([O-])O.[Na+].[Na+]` [SODIUM PHOSPHATE, DIBASIC, ANHYDROUS]?
Ki [4]: Activator; Ki [2]: 4.49 mM

With `NC(=O)OP(=O)([O-])[O-].[Na+].[Na+]` [CARBAMOYL PHOSPHATE; DI SODIUM] as the compound, how does the Ki [5] read?
The Ki was 0.31 mM.

What about the Ki [6] of the same compound?
The Ki was 9.4 µM.

What about the Ki [1] of the same compound?
Its Ki is 0.0099 mM.

And the Ki [2]?
The Ki was 0.0085 mM.

And the Ki [3]?
Its Ki is 3.06 mM.

What does the source list for `O=C[O-].[Na+]` [SODIUM FORMATE]?
Ki [4]: Activator; Ki [5]: 24 mM; Ki [2]: 9.97 mM; Ki [3]: 1.22 mM

Which results are given for `O=C([O-])P(=O)([O-])[O-].[Na+].[Na+].[Na+]` [FOSCARNET SODIUM]?
Ki [4]: Activator; Ki [5]: 14.2 mM; Ki [1]: 0.82 mM; Ki [2]: 41.7 mM; Ki [3]: 2.21 mM
